Tests used:
SR (Leukemia) = assay: NCI one dose, SR; format: cell-based, human; conditions: 1.00E-5 Molar one dose
Summary of the method: (§1)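 Sulforhodamine B protein staining measured cell growth after cells from the NCI 60-line panel were exposed to compound for 48 h.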

[1] = system: NCI-H460 (Non-Small Cell Lung Cancer); assay: NCI one dose, NCI-H460; format: cell-based, human; conditions: NCI-H460, 1.00E-5 Molar one dose
Summary of the method: (§2)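 Compounds were screened in the NCI 60-cell-line human cancer panel with a 48 h exposure; cytotoxicity was read by sulforhodamine B staining.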

MOLT-4 (Leukemia) = assay: NCI one dose, MOLT-4; format: cell-based, human; conditions: MOLT-4, 1.00E-5 Molar one dose
Summary of the method: as §1

786-0 (Renal Cancer) = assay: NCI one dose, 786-0; format: cell-based, human; conditions: 786-0, 1.00E-5 Molar one dose
Summary of the method: as §1

KM12 (Colon Cancer) = assay: NCI one dose, KM12; format: cell-based, human; conditions: KM12, 1.00E-5 Molar one dose
Summary of the method: as §1

[2] = system: MDA-MB-231/ATCC (Breast Cancer); assay: NCI one dose, MDA-MB-231/ATCC; format: cell-based, human; conditions: 1.00E-5 Molar one dose
Summary of the method: as §1

OVCAR-4 (Ovarian Cancer) = assay: NCI one dose, OVCAR-4; format: cell-based, human; conditions: OVCAR-4, 1.00E-5 Molar one dose
Summary of the method: as §1

[3] = system: A549/ATCC (Non-Small Cell Lung Cancer); assay: NCI one dose, A549/ATCC; format: cell-based, human; conditions: 1.00E-5 Molar one dose
Summary of the method: as §1

[4] = system: NCI-H23 (Non-Small Cell Lung Cancer); assay: NCI one dose, NCI-H23; format: cell-based, human; conditions: NCI-H23, 1.00E-5 Molar one dose
Summary of the method: as §1

U251 (CNS Cancer) = assay: NCI one dose, U251; format: cell-based, human; conditions: U251, 1.00E-5 Molar one dose
Summary of the method: as §1

T-47D (Breast Cancer) = assay: NCI one dose, T-47D; format: cell-based, human; conditions: 1.00E-5 Molar one dose
Summary of the method: as §2

UO-31 renal cancer cells = assay: NCI one dose, UO-31; format: cell-based, human; conditions: for Growth Percent: UO-31, 1.00E-5 Molar one dose
Summary of the method: as §1

TK-10 (Renal Cancer) = assay: NCI one dose, TK-10; format: cell-based, human; conditions: TK-10, 1.00E-5 Molar one dose
Summary of the method: as §1

CAKI-1 (Renal Cancer) = assay: NCI one dose, CAKI-1; format: cell-based, human; conditions: CAKI-1, 1.00E-5 Molar one dose
Summary of the method: as §1

SF-539 (CNS Cancer) = assay: NCI one dose, SF-539; format: cell-based, human; conditions: SF-539, 1.00E-5 Molar one dose
Summary of the method: as §1

SF-268 (CNS Cancer) = assay: NCI one dose, SF-268; format: cell-based, human; conditions: SF-268, 1.00E-5 Molar one dose
Summary of the method: as §1

RXF 393 (Renal Cancer) = assay: NCI one dose, RXF 393; format: cell-based, human; conditions: RXF 393, 1.00E-5 Molar one dose
Summary of the method: as §1

MALME-3M (Melanoma) = assay: NCI one dose, MALME-3M; format: cell-based, human; conditions: 1.00E-5 Molar one dose
Summary of the method: as §2

A498 (Renal Cancer) = assay: NCI one dose, A498; format: cell-based, human; conditions: A498, 1.00E-5 Molar one dose
Summary of the method: as §1

[5] = system: panel of 60 human cancer cell lines; assay: NCI 60 cell panel one dose screen (whole panel); format: cell-based; design: Delta (One Dose Mean Graph): unit not given here; conditions: 1.00E-5 Molar one dose; for Range (One Dose Mean Graph): in % (unit assumed); for Mean Growth Percent: mean over tested cell lines
Summary of the method: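 Single-dose screen at 10 µM across the NCI 60 human cancer cell line panel; 48 h compound exposure with growth measured by sulforhodamine B assay.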

IGROV1 (Ovarian Cancer) = assay: NCI one dose, IGROV1; format: cell-based, human; conditions: IGROV1, 1.00E-5 Molar one dose
Summary of the method: as §1

OVCAR-8 (Ovarian Cancer) = assay: NCI one dose, OVCAR-8; format: cell-based, human; conditions: OVCAR-8, 1.00E-5 Molar one dose
Summary of the method: as §2

RPMI-8226 (Leukemia) = assay: NCI one dose, RPMI-8226; format: cell-based, human; conditions: RPMI-8226, 1.00E-5 Molar one dose
Summary of the method: as §1

SK-MEL-5 (Melanoma) = assay: NCI one dose, SK-MEL-5; format: cell-based, human; conditions: SK-MEL-5, 1.00E-5 Molar one dose
Summary of the method: as §1

HCC-2998 (Colon Cancer) = assay: NCI one dose, HCC-2998; format: cell-based, human; conditions: HCC-2998, 1.00E-5 Molar one dose
Summary of the method: as §1

PC-3 (Prostate Cancer) = assay: NCI one dose, PC-3; format: cell-based, human; conditions: PC-3, 1.00E-5 Molar one dose
Summary of the method: as §1

Row | Structure (SMILES) | Growth Percent (SR (Leukemia)) [%] | Growth Percent [1] [%] | Growth Percent (MOLT-4 (Leukemia)) [%] | Growth Percent (786-0 (Renal Cancer)) [%] | Growth Percent (KM12 (Colon Cancer)) [%] | Growth Percent [2] [%] | Growth Percent (OVCAR-4 (Ovarian Cancer)) [%] | Growth Percent [3] [%] | Growth Percent [4] [%] | Growth Percent (U251 (CNS Cancer)) [%] | Growth Percent (T-47D (Breast Cancer)) [%] | Growth Percent (UO-31 renal cancer cells) [%] | Growth Percent (TK-10 (Renal Cancer)) [%] | Growth Percent (CAKI-1 (Renal Cancer)) [%] | Growth Percent (SF-539 (CNS Cancer)) [%] | Growth Percent (SF-268 (CNS Cancer)) [%] | Growth Percent (RXF 393 (Renal Cancer)) [%] | Growth Percent (MALME-3M (Melanoma)) [%] | Growth Percent (A498 (Renal Cancer)) [%] | Delta (One Dose Mean Graph) [5] | other results
1 | C[C@@]12SC[C@@H](C(=O)NCc3ccc(Cl)cc3Cl)N1C(=O)c1ccccc12 [4bH] | 88.00 | 104.39 | 83.18 | 103.58 | 101.11 | 99.81 | 93.22 | 77.42 | 94.51 | 90.46 | 79.65 | 86.15 | 105.53 | 86.12 | 100.42 | 99.59 | 102.82 | 108.23 | 77.10 | 23.83 | Range (One Dose Mean Graph) [5]: 40.77; Mean Growth Percent [5]: 95.56%; Growth Percent (IGROV1 (Ovarian Cancer)): 100.21%; Growth Percent (OVCAR-8 (Ovarian Cancer)): 93.06%; Growth Percent (RPMI-8226 (Leukemia)): 86.31%; Growth Percent (SK-MEL-5 (Melanoma)): 92.84%; Growth Percent (HCC-2998 (Colon Cancer)): 99.28%; Growth Percent (PC-3 (Prostate Cancer)): 78.16%
2 | COc1ccc(CNC(=O)[C@@H]2CS[C@@]3(C)c4ccccc4C(=O)N23)cc1OC [4bI] | 75.23 | 103.23 | 76.47 | 107.06 | 102.81 | 98.00 | 91.78 | 79.51 | 82.91 | 93.58 | 71.47 | 79.77 | 95.68 | 89.36 | 99.30 | 99.31 | 104.59 | 106.59 | 83.43 | 38.86 | inhibition at 10 µM (UO-31 renal cancer cells; Homo sapiens, UO-31, 10 µM single dose, read-out: inhibition of growth of UO-31 renal cancer cells): 20%; Range (One Dose Mean Graph) [5]: 57.76; Mean Growth Percent [5]: 93.56%; Growth Percent (IGROV1 (Ovarian Cancer)): 104.59%; Growth Percent (OVCAR-8 (Ovarian Cancer)): 91.42%; Growth Percent (RPMI-8226 (Leukemia)): 81.37%; Growth Percent (SK-MEL-5 (Melanoma)): 88.12%; Growth Percent (HCC-2998 (Colon Cancer)): 96.29%; Growth Percent (PC-3 (Prostate Cancer)): 88.41%
3 | COc1cc(CNC(=O)[C@@H]2CS[C@@]3(C)c4ccccc4C(=O)N23)cc(OC)c1OC [4bJ] | 77.35 | 105.78 | 81.24 | 102.08 | 106.18 | 98.30 | 97.02 | 83.12 | 96.92 | 82.69 | 87.15 | 90.29 | 102.44 | 89.81 | 98.24 | 101.09 | 98.72 | 108.52 | 90.55 | 27.08 | Range (One Dose Mean Graph) [5]: 43.64; Mean Growth Percent [5]: 95.84%; Growth Percent (IGROV1 (Ovarian Cancer)): 106.56%; Growth Percent (OVCAR-8 (Ovarian Cancer)): 92.35%; Growth Percent (RPMI-8226 (Leukemia)): 90.22%; Growth Percent (SK-MEL-5 (Melanoma)): 102.14%; Growth Percent (HCC-2998 (Colon Cancer)): 95.49%; Growth Percent (PC-3 (Prostate Cancer)): 89.97%
